From patent publication US5254554A, “3-hydroxy-substituted-1-phenyl-1,4-dihydro-4-oxopyridazines and derivatives, and use” (Pierre Fabre Medicament, priority 1991, dated 1993) come the findings set out here.

pIC50: −log10 of the molar value.

A short description of assay [1]: Anxiolytic activity, Vogel test. The format is in vivo. To be noted: 30 mg/kg per os. Here is the method: (§1) Results obtained on the products of the present invention are presented in the following and are expressed in percentage of increase by reference to an untreated control, with the product being administered per os at a dose of 30 mg/kg.
Assay [2] is described as follows: Anxiolytic activity, X-labyrinth test (elevated plus maze). The assay is classed as in vivo. To be noted: 30 mg/kg per os. As to the method: as §1
In the next assay the target is T1, Lipoxygenase (Rattus norvegicus, UniProt P12527).
T1 construct: suspensions of polymorphonuclear peritonea of rates stimulated by means of the Ionophore A 23 187; endogenous in cells; host or cells: rat peritoneal polymorphonuclear cells
T1 sequence (P12527 1-673): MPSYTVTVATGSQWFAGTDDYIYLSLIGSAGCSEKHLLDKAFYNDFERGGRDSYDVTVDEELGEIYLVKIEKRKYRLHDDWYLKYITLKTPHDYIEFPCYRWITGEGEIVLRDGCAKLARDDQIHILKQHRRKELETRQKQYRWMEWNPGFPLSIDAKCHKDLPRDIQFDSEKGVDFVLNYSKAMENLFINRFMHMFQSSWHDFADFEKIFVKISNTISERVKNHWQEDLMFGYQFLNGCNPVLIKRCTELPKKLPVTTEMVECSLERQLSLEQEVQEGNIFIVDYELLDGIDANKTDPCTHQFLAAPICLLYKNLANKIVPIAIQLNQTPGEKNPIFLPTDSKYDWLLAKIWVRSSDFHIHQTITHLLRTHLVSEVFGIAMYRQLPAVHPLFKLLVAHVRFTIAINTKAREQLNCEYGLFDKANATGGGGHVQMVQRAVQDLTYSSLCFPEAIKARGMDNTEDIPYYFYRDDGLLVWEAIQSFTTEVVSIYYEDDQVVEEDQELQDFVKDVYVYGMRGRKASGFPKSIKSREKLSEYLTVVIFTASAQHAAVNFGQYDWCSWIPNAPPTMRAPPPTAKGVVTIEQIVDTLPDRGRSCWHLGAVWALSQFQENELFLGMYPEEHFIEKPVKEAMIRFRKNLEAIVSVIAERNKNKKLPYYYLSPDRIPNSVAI
Nature of the assay: Inhibition of Lipoxygenase: inhibition of leukotriene B4 production by polymorphonuclear cells stimulated by Ionophore A 23 187. To be noted: polymorphonuclear peritoneal cell suspensions. The format is cell-based.

With `COc1nn(-c2cccc(C(F)(F)F)c2)c(C)cc1=O` [Compound 2, 1-Metatrifluoromethylphenyl-1,4-dihydro-3-methoxy-4-oxo-6-methylpyridazine], the “Vogel test: percentage of increase by reference to an untreated control” value (“Vogel test: percentage of increase” below) in assay [1] is listed as 95%. In addition, the “X-labyrinth test: percentage of increase by reference to an untreated control” value (“X-labyrinth test: percentage of increase” below) in assay [2] is 95%. For `C=CCOc1nn(-c2cccc(C(F)(F)F)c2)c(C)cc1=O` [Compound 5, 1-Metatrifluoromethylphenyl-1,4-dihydro-3-allyloxy-4-oxo-6-methylpyridazine], the “Vogel test: percentage of increase” value in assay [1] was 48%. A word on the pIC50: it is the negative decadic logarithm of the IC50, by convention in mol/L. Low readings indicate a high IC50, high ones a low IC50. As to `Cc1cc(=O)c(OCc2ccccc2)nn1-c1cccc(C(F)(F)F)c1` [Compound 6, 1-Metatrifluoromethylphenyl-1,4-dihydro-3-benzyloxy-4-oxo-6-methylpyridazine], the pIC50 on Lipoxygenase was 5.90. Also, in assay [1], the “Vogel test: percentage of increase” value is given as 98%. In addition, in assay [2], the “X-labyrinth test: percentage of increase” value came out at 18%. As to `COc1nn(-c2cccc(C(F)(F)F)c2)ccc1=O` [Compound 9, 1-Metatrifluoromethylphenyl-1,4-dihydro-3-methoxy-4-oxopyridazine], the “Vogel test: percentage of increase” value in assay [1] was 52%. Besides, in assay [2], the “X-labyrinth test: percentage of increase” value was 165%.

On Lipoxygenase, `O=c1ccn(-c2cccc(C(F)(F)F)c2)nc1OCc1ccccc1` [Compound 10, 1-Metatrifluoromethylphenyl-1,4-dihydro-3-benzyloxy-4-oxopyridazine] gave a pIC50 of 4.60. Also, the “Vogel test: percentage of increase” value in assay [1] is 38%. On Lipoxygenase, `Cc1cc(=O)c(OCc2ccc3ccccc3n2)nn1-c1cccc(C(F)(F)F)c1` [Compound 11, 1-Metatrifluoromethylphenyl-1,4-dihydro-3-(2-quinolylmethoxy)-4-oxo-6-methylpyridazine] showed a pIC50 of 5.96.
